{
  "source": "patent US4503244A",
  "about": "“Sebosuppressive topical cosmetic preparations containing alkoxybenzoic acid esters, process for inhibiting sebum production and alkoxybenzoic acid esters” (Henkel Kommanditgesellschaft, priority 1983, dated 1985)",
  "key": {"[1]": {"system": "brown skin surface lipid of the rats", "test": "Antiseborrheic effect: browning of the shaved back of rats, visually assessed (half-back application, 14 days)", "assay_type": "in vivo, male Wistar rats", "conditions": "for Sebum reduction: (ΔP/Pk)·100", "excerpt": "The antiseborrheic effect was closely studied using the animal tests described in the following:\nThe test animals were male Wistar rats having a body weight of 220 to 230 g at the beginning of the tests. The degree of browning on the shaved back of the rats was visually assessed. Browning is produced by the brown skin surface lipid of the rats. This test is based on the observation that young female rats and also male rats washed with a tenside solution or with a lipid solvent and also male rats systematically treated with estrogen only have the normal light, pink-colored skin after shaving. At the same time, only comparatively very small quantities of lipids can be extracted from the shaved hair.\nIn order to assess effectiveness, the test substances in solution in alcohol were each brushed onto half the back of 6 rats. The other half was only treated with the solvent minus active substances.\nOver the test period of 14 days, the test substances were applied once daily for a total of 9 days. A group of 6 rats which remained completely untreated was used for further control. At the end of the test, the animals were shaved on their back and sides and were visually assessed independently by an examination panel of 6 people under double blind conditions.\nThe first criterion evaluated was whether the majority of examiners correctly recognized the treated side, differentiation being carried out as follows:\nThe second criterion evaluated was the difference between the righthand side and the lefthand side, each examiner having to award 1 point per animal on the following basis:\nlighter side--0 point and\nboth sides the same--0.5 point\nSignificant differences between the untreated and treated sides in the second method of evaluation indicate the local effectiveness of a substance.\nThe third criterion evaluated was the difference in intensity between the shades of brown using the following scale:\nIn the third method or evaluation, the points total differences are worked out between the untreated control animals and the treated and untreated sides of the test animals, significant differences between the control animals and the treated side of the test animals again indicating the effectiveness of a substance.\nAt the same time, there is generally also a distinct difference between the untreated and treated sides of the groups of test animals. However, this difference is not always as clear as that between the control animals and the treated sides, for which there may be various reasons, including for example mechanical transfer of substance from one side to the other or solvent influence.\nThe following scheme was used for differentiating the effects according to evaluation methods 2 and 3:\nPercentage sebum reduction\nThe sebum reduction is calculated from the points difference by working out the quotient between the points difference ΔP and the number of points for the control group Pk and expressing the value obtained in percent.\nSebum reduction=(ΔP/Pk)·100[%]"}, "[2]": {"system": "seborrhea / production of sebum", "conditions": "background art; cited from earlier work"}},
  "data": [
    {"compound": "CCCCCCCCCCOc1ccc(C(=O)OCCOC)cc1", "note": "[A, p-decyloxybenzoic acid 2-methoxy-ethyl ester]", "values": [
      {"measurement": "Evaluation method 1 (percentage of examiners noticing an effect)", "setting": "[1]; Conc. 0.1% in alcohol", "value": "++ (100%)"},
      {"measurement": "Evaluation method 2 (points difference between treated and untreated side)", "setting": "[1]; Conc. 0.1% in alcohol", "value": "++ (very large (≥99.9% probability))"},
      {"measurement": "Evaluation method 3 (difference in intensity between shades of brown vs untreated control animals)", "setting": "[1]; Conc. 0.1% in alcohol", "value": "++ (very large (≥99.9% probability))"},
      {"measurement": "Sebum reduction", "setting": "[1]; Conc. 0.1% in alcohol", "value": 69, "unit": "%"},
      {"measurement": "Evaluation method 1 (percentage of examiners noticing an effect)", "setting": "[1]; Conc. 1.0% in alcohol", "value": "++ (100%)"},
      {"measurement": "Evaluation method 2 (points difference between treated and untreated side)", "setting": "[1]; Conc. 1.0% in alcohol", "value": "++ (very large (≥99.9% probability))"},
      {"measurement": "Evaluation method 3 (difference in intensity between shades of brown vs untreated control animals)", "setting": "[1]; Conc. 1.0% in alcohol", "value": "++ (very large (≥99.9% probability))"},
      {"measurement": "Sebum reduction", "setting": "[1]; Conc. 1.0% in alcohol", "value": 100, "unit": "%"}
    ]},
    {"compound": "CCCCCCCCCCOc1ccc(C(=O)OCCOCC)cc1", "note": "[B, p-decyloxybenzoic acid 2-ethoxy-ethyl ester]", "values": [
      {"measurement": "Evaluation method 1 (percentage of examiners noticing an effect)", "setting": "[1]; Conc. 0.1% in alcohol", "value": "++ (100%)"},
      {"measurement": "Evaluation method 2 (points difference between treated and untreated side)", "setting": "[1]; Conc. 0.1% in alcohol", "value": "++ (very large (≥99.9% probability))"},
      {"measurement": "Evaluation method 3 (difference in intensity between shades of brown vs untreated control animals)", "setting": "[1]; Conc. 0.1% in alcohol", "value": "++ (very large (≥99.9% probability))"},
      {"measurement": "Sebum reduction", "setting": "[1]; Conc. 0.1% in alcohol", "value": 30, "unit": "%"},
      {"measurement": "Evaluation method 1 (percentage of examiners noticing an effect)", "setting": "[1]; Conc. 1.0% in alcohol", "value": "++ (100%)"},
      {"measurement": "Evaluation method 2 (points difference between treated and untreated side)", "setting": "[1]; Conc. 1.0% in alcohol", "value": "++ (very large (≥99.9% probability))"},
      {"measurement": "Evaluation method 3 (difference in intensity between shades of brown vs untreated control animals)", "setting": "[1]; Conc. 1.0% in alcohol", "value": "++ (very large (≥99.9% probability))"},
      {"measurement": "Sebum reduction", "setting": "[1]; Conc. 1.0% in alcohol", "value": 93, "unit": "%"}
    ]},
    {"compound": "CCCCCCCCCCOc1ccc(C(=O)OCCOCCOC)cc1", "note": "[C, p-decyloxybenzoic acid 2-(2-methoxyethoxy)-ethyl ester]", "values": [
      {"measurement": "Evaluation method 1 (percentage of examiners noticing an effect)", "setting": "[1]; Conc. 0.1% in alcohol", "value": "++ (100%)"},
      {"measurement": "Evaluation method 2 (points difference between treated and untreated side)", "setting": "[1]; Conc. 0.1% in alcohol", "value": "++ (very large (≥99.9% probability))"},
      {"measurement": "Evaluation method 3 (difference in intensity between shades of brown vs untreated control animals)", "setting": "[1]; Conc. 0.1% in alcohol", "value": "++ (very large (≥99.9% probability))"},
      {"measurement": "Sebum reduction", "setting": "[1]; Conc. 0.1% in alcohol", "value": 26, "unit": "%"},
      {"measurement": "Evaluation method 1 (percentage of examiners noticing an effect)", "setting": "[1]; Conc. 1.0% in alcohol", "value": "++ (100%)"},
      {"measurement": "Evaluation method 2 (points difference between treated and untreated side)", "setting": "[1]; Conc. 1.0% in alcohol", "value": "++ (very large (≥99.9% probability))"},
      {"measurement": "Evaluation method 3 (difference in intensity between shades of brown vs untreated control animals)", "setting": "[1]; Conc. 1.0% in alcohol", "value": "++ (very large (≥99.9% probability))"},
      {"measurement": "Sebum reduction", "setting": "[1]; Conc. 1.0% in alcohol", "value": 100, "unit": "%"}
    ]},
    {"compound": "CCCCCCCCCCOc1ccc(C(=O)OCCO)cc1", "note": "[D, p-decyloxybenzoic acid 2-hydroxy-ethyl ester]", "values": [
      {"measurement": "Evaluation method 1 (percentage of examiners noticing an effect)", "setting": "[1]; Conc. 1.0% in alcohol", "value": "++ (100%)"},
      {"measurement": "Evaluation method 2 (points difference between treated and untreated side)", "setting": "[1]; Conc. 1.0% in alcohol", "value": "++ (very large (≥99.9% probability))"},
      {"measurement": "Evaluation method 3 (difference in intensity between shades of brown vs untreated control animals)", "setting": "[1]; Conc. 1.0% in alcohol", "value": "++ (very large (≥99.9% probability))"},
      {"measurement": "Sebum reduction", "setting": "[1]; Conc. 1.0% in alcohol", "value": 98, "unit": "%"}
    ]},
    {"compound": "CCCCCCCCCCOc1ccc(C(=O)OCCN(CC)CC)cc1", "note": "[E, p-decyloxybenzoic acid 2-diethylaminoethyl ester]", "values": [
      {"measurement": "Evaluation method 1 (percentage of examiners noticing an effect)", "setting": "[1]; Conc. 0.1% in alcohol", "value": "++ (100%)"},
      {"measurement": "Evaluation method 2 (points difference between treated and untreated side)", "setting": "[1]; Conc. 0.1% in alcohol", "value": "++ (very large (≥99.9% probability))"},
      {"measurement": "Evaluation method 3 (difference in intensity between shades of brown vs untreated control animals)", "setting": "[1]; Conc. 0.1% in alcohol", "value": "++ (very large (≥99.9% probability))"},
      {"measurement": "Sebum reduction", "setting": "[1]; Conc. 0.1% in alcohol", "value": 80, "unit": "%"},
      {"measurement": "Evaluation method 1 (percentage of examiners noticing an effect)", "setting": "[1]; Conc. 1.0% in alcohol", "value": "++ (100%)"},
      {"measurement": "Evaluation method 2 (points difference between treated and untreated side)", "setting": "[1]; Conc. 1.0% in alcohol", "value": "++ (very large (≥99.9% probability))"},
      {"measurement": "Evaluation method 3 (difference in intensity between shades of brown vs untreated control animals)", "setting": "[1]; Conc. 1.0% in alcohol", "value": "++ (very large (≥99.9% probability))"},
      {"measurement": "Sebum reduction", "setting": "[1]; Conc. 1.0% in alcohol", "value": 90, "unit": "%"}
    ]},
    {"compound": "CCCCCCCCCCCCOc1ccc(C(=O)OCCOC)cc1", "note": "[F, p-dodecyloxybenzoic acid 2-methoxy-ethyl ester]", "values": [
      {"measurement": "Evaluation method 1 (percentage of examiners noticing an effect)", "setting": "[1]; Conc. 0.2% in alcohol", "value": "++ (100%)"},
      {"measurement": "Evaluation method 2 (points difference between treated and untreated side)", "setting": "[1]; Conc. 0.2% in alcohol", "value": "++ (very large (≥99.9% probability))"},
      {"measurement": "Evaluation method 3 (difference in intensity between shades of brown vs untreated control animals)", "setting": "[1]; Conc. 0.2% in alcohol", "value": "++ (very large (≥99.9% probability))"},
      {"measurement": "Sebum reduction", "setting": "[1]; Conc. 0.2% in alcohol", "value": 92, "unit": "%"},
      {"measurement": "Evaluation method 1 (percentage of examiners noticing an effect)", "setting": "[1]; Conc. 1.0% in alcohol", "value": "++ (100%)"},
      {"measurement": "Evaluation method 2 (points difference between treated and untreated side)", "setting": "[1]; Conc. 1.0% in alcohol", "value": "++ (very large (≥99.9% probability))"},
      {"measurement": "Evaluation method 3 (difference in intensity between shades of brown vs untreated control animals)", "setting": "[1]; Conc. 1.0% in alcohol", "value": "++ (very large (≥99.9% probability))"},
      {"measurement": "Sebum reduction", "setting": "[1]; Conc. 1.0% in alcohol", "value": 91, "unit": "%"}
    ]},
    {"compound": "CCCCCCCCCCOc1ccc(C(=O)OCC(=O)OC)cc1", "note": "[G, p-decyloxybenzoyloxy-acetic acid methyl ester]", "values": [
      {"measurement": "Evaluation method 1 (percentage of examiners noticing an effect)", "setting": "[1]; Conc. 0.5% in alcohol", "value": "++ (100%)"},
      {"measurement": "Evaluation method 2 (points difference between treated and untreated side)", "setting": "[1]; Conc. 0.5% in alcohol", "value": "++ (very large (≥99.9% probability))"},
      {"measurement": "Evaluation method 3 (difference in intensity between shades of brown vs untreated control animals)", "setting": "[1]; Conc. 0.5% in alcohol", "value": "++ (very large (≥99.9% probability))"},
      {"measurement": "Sebum reduction", "setting": "[1]; Conc. 0.5% in alcohol", "value": 82, "unit": "%"}
    ]},
    {"compound": "CCN(CC)C(=O)c1cccc(C)c1", "note": "[N,N-diethyl-m-toluamide]", "values": [
      {"measurement": "sebosuppressive / antiseborrheic effect of known substances", "setting": "[2]", "value": "neither N,N-diethyl-m-toluamide nor phenylpentadienoic acid show, however, fully satisfactory sebosuppressive properties"}
    ]},
    {"compound": "O=C(O)C=CC=Cc1ccccc1", "note": "[phenylpentadienoic acid]", "values": [
      {"measurement": "sebosuppressive / antiseborrheic effect of known substances", "setting": "[2]", "value": "neither N,N-diethyl-m-toluamide nor phenylpentadienoic acid show, however, fully satisfactory sebosuppressive properties"}
    ]}
  ]
}
